Consider six molecules from patent EP4119138A1 (Universität Hamburg, priority 2021, dated 2023).

Molecules are shown by their SMILES. Some results are limits rather than exact numbers.

The IC50 is the concentration that inhibits the measured activity by half. What is called Papp is the rate of passage across a membrane or cell layer, normalised by area and donor concentration.

The target of one series is hDHODH (Homo sapiens, UniProt Q02127). The series can be described thus: hDHODH enzyme assay (DCPIP absorption, initial velocities). To be noted: for IC50: hDHODH inhibition, HsDHODH29-396 35 nM, 25 °C. It is filed as biochemical. The protocol:
Expression and purification of the enzyme was carried out following the protocol of DAS et al. (SAR-Based Optimization of a 4-Quinoline Carboxylic Acid Analogue with Potent Antiviral Activity. ACS Med. Chem. Lett. 2013, 4, 517-521). The prepared enzyme stock solution (325 µM) was thawed to 0 °C and carefully diluted to 87.5 nM with ice-cooled Tris-HCl buffer (50 mM Tris-HCl, 0.1 % Triton X-100, pH 8.0)). Stock solutions of all test compounds (100 mM), L-DHO (250 mM) and CoQ1 (250 mM) were prepared in DMSO, stored at -20 °C and thawed to room temperature before use. The reaction was performed in triplicates in a 96 well plate with total volumes of 200 µL containing L-dihydroorotate (L-DHO; 0.10 mM), coenzyme Q1 (CoQ1; 25 µM), 2,6-dichlorophenolindophenol (DCPIP; 60 µM), HsDHODH29-396 (35 nM) and the test compound (varying concentrations) in Tris-HCl buffer.
The compound stock solutions were diluted in Tris-HCl buffer to give nine different concentrations and each sample was treated with a freshly prepared substrate mixture containing L-DHO, CoQ1 and DCPIP. By simultaneous addition of 80 µL ice-cooled enzyme solution ([…]) per well and immediate mixing by thorough pipetting, the reaction was started. The absorption of the mixture was monitored using a spectrophotometer (Berthold Technologies TriStar2S LB942 Multimode Reader, ICE software) with one data point per 10 seconds at an excitation wavelength of 600 nm and a temperature of 25 °C. During the first 200 s from enzyme addition, linear initial enzyme velocites were recorded, from which the IC50 values were calculated by non-linear fitting (Origin software) to the following equation: v = (V0)/(1 + (c)/(IC50)) [formula] wherein • v is the determined initial, linear enzyme velocity, • V0 is the calculated enzyme velocity without test compound and • c is the concentration of added test compound.

Another series deals with LASV Ba366. The series can be described thus: microbe, parasite or virus in culture. The class given is cell-based, Lassa virus. To be noted: Mammarenavirus lassaense, Vero, 72 h.
The test system of another series is EBOV Mayinga. Briefly: microbe, parasite or virus in culture. It is filed as cell-based, Ebola virus. The conditions noted are these: Zaire ebolavirus, Vero, 96 h.
In a further series the test system is CCHFV Afg 09-2990. Briefly: microbe, parasite or virus in culture. The class given is cell-based, Crimean-Congo hemorrhagic fever orthonairovirus. The conditions noted are these: Orthonairovirus haemorrhagiae, Vero, 72 h.
Series [1] deals with human PBMCs (CD4/CD8 T cells). Briefly: Lymphocyte inhibition, Cytostim-stimulated PBMCs, flow cytometry. The class given is cell-based. To be noted: T-cell stimulation by Cytostim, read-out: IC50 for CD4 and CD8 replication. How it is done:
Lymphocyte inhibition was determined by using human PBMCs (peripheral blood mononuclear cells) as cell culture. The inhibitor compound was added at 8 different concentrations with each determination in triplicate and one control without inhibitor. T-cell stimulation was done by Cytostim, a reagent that binds T-cell receptors to MHC molecules of the antigen-presenting cells in an antibody-based manner and enables T-cell stimulation. Quantification was achieved by a flow cytometry-based method (Facs analysis) with staining of PBMCs with eFluor670 (eBioscience(TM)). The PBMCs are assigned to their populations (CD4/CD8 T cells) by use of other markers.

Another series is described as follows: S9 metabolism assay. It is filed as in vitro ADME, rat. The conditions noted are these: for amide cleavage: hydrolysis study in S9 extract of rat liver, identified via LC-MS; for Metabolic stability [% remaining at 1h in rat S9 fraction]: test compound 100 µM, 37 °C. The protocol:
Stock solutions of all test compounds (100 mM) were prepared in DMSO, stored at-20 °C and diluted in PB to 600 µM prior to the assay. Rat liver S9 fractions (SigmaAldrich, Lot # SLCC9026 and # SLCB2232) were combined, aliquoted (200 µL), stored at -80 °C and thawed to 0 °C before use. The reaction was performed in triplicates in eppendorf tubes with total volumes of 300 µL containing MgCl2 (5 mM), NADPH (5 mM), rat S9 fraction (1 mg) and the test compound (100 µM) in phosphate buffer (38.5 mM Na2HPO4, 11.5 mM KH2PO4, pH 7.3). 7-Ethoxycoumarin was assessed as reference inhibitor and a control without inhibitor but an equivalent amount of buffer instead was run. The ice cooled S9 fraction was added to a solution of MgCl2 and NADPH in PB and the resulting mixture was preincubated for 10 minutes at 37 °C in a shaker. Subsequently the reaction was started by addition of the test compound (50 µL), followed by threefold pipetting. After 0 h, 1 h and 3 h, samples of 50 µL were taken from the reaction, mixed with 150 µL ice-cooled methanol and centrifuged at 14000 rpm and 4 °C for 15 minutes. The supernatant was filtered with a syringe fiter, immediately quantified on HPLC and stored at -20 °C until LC/MS analysis.

The nature of series [2]: Octanol-water partition coefficient (logD). The class given is physicochemical. The conditions noted are these: PBS pH 7.4 / octanol, 25 °C; read-out: Log D (PBS pH 7.4/ octanol). How it is done:
Octanol and phosphate buffered saline (PBS, 137 mM NaCl, 2.7 mM KCl, 10 mM Na2HPO4, 2.0 mM KH2PO4, pH 7.4) were saturated with each other prior to the experiment. Stock solutions of all test compounds (100 mM) were prepared in DMSO, stored at - 20 °C and diluted with the saturated PBS to 100 µM prior to the experiment. The experiment was performed in duplicates in 2 mL HPLC-vials. 300 µL of the test compound solution (100 µM) was overlayered with 300 µL saturated octanol. The emulsions were vortexed for 1 min and shaken for 1 h at 180 rpm and 25 °C. After phase separation, the aqueous phases and the initial 100 µM compound solution were quantified on HPLC.

The nature of series [3]: Membrane permeability (PAMPA assay). It is filed as in vitro ADME. To be noted: PBS pH 7.4, 5 h, 25 °C. The protocol: Stock solutions of all test compounds (100 mM) were prepared in DMSO, stored at -20 °C and diluted with phosphate buffered saline (PBS, 137 mM NaCl, 2.7 mM KCl, 10 mM Na2HPO4, 2.0 mM KH2PO4, pH 7.4) to 200 µM prior to the experiment. The assay was performed in triplicates in a 96 well Corning Gentest Precoated PAMPA Plate System, which was stored at -20 °C and thawed to room temperature for 1 h prior to the assay. Wells of the donor plate were filled with 300 µL of the compound solutions (200 µM) and 200 µL PBS were added to the wells of the receiver plate. Two controls without inhibitor but an equivalent amount of buffer instead was run. Bubble-free assembling of the two plates was followed by 5 h incubation at 25 °C. Finally, the plates were carefully separated from each other. 150 µL of each well of both plates were transferred to black 96-well FluoroNunc™ plates and quantified on fluorescence spectrophotometer (Berthold Technologies TriStar^2S LB942 Multimode Reader, ICE software). Membrane Permeabilities were calculated using the following equation: Ppampa = (−ln(1−(cacc (t))/(ceq)))/(Aperm ⋅((1)/(Vdon)+(1)/(Vacc))⋅t) [formula] wherein • Cacc(t) is the compound concentration in acceptor well at time t, • Aperm is the area of the membrane filter (0.3 cm^2), • Vdon is the donor well volume (0.3 mL), • Vacc is the acceptor well volume (0.2 mL) and • Ceq is the equilibrium concentration with ceq = (cdon (t)⋅Vdon + cacc (t)⋅Vacc)/(Vdon + Vacc) [formula] where cdon(t) is the compound concentration in donor well at time t.
(In general: PAMPA measures passive passage across an artificial lipid membrane.)

A further series is described as follows: in vitro. The conditions noted are these: African green monkey.

Sequence of hDHODH (Q02127 29-395 limits assumed): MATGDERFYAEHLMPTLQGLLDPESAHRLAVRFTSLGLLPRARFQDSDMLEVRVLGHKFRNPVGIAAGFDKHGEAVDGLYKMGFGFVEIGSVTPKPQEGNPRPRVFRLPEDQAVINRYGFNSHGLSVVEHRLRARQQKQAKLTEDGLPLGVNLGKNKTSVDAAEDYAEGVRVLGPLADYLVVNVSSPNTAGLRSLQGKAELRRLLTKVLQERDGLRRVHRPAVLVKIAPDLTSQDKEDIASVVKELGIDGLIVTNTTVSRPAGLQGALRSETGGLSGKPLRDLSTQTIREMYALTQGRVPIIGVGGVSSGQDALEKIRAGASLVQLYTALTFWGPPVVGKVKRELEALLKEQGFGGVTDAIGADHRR

For the molecule `O=C(NCc1cc2cc(F)cc(C(F)(F)F)c2o1)Nc1ccccc1C(=O)O` [Example 3], the IC50 against hDHODH was ~230 nM.

For `CCC(C)(C)c1cccc2cc(CNC(=O)Nc3ccccc3C(=O)O)oc12` [Example 1], the IC50 in the series on LASV Ba366 was 35 nM; with EBOV Mayinga, 14 nM; with CCHFV Afg 09-2990, 100 nM; against hDHODH it was 9.2 nM; in [1], ~150 nM. Besides, the amide cleavage result in “S9 metabolism assay” is given as “no amide cleavage”. In addition, in “S9 metabolism assay”, the “Metabolic stability [% remaining at 1h in rat S9 fraction]” value is listed as 68.2%. The logD in series [2] is 2.98. The same molecule showed a Papp at 5 h, 200 µM in series [3] of 5.74 ×10⁻⁶ cm/s. Further, the CC50 in the series “in vitro” is > 1000 nM.

Turning to `O=C(Nc1cnccc1C(=O)O)Nc1cccc2ccccc12` [Example 18], at hDHODH (at a 1 µM concentration), the “percentual inhibition of hDHODH” value was 91%. On hDHODH, this molecule gave an IC50 of 81 nM. In the series “S9 metabolism assay”, the amide cleavage entry is on record as “did not show amide cleavage” and the “Metabolic stability [% remaining at 1h in rat S9 fraction]” value stood at 89.6%. In addition, the logD in series [2] amounted to 0.32. This molecule also returned a Papp at 5 h, 200 µM in series [3] of 6.84 ×10⁻⁶ cm/s.

As for `CCC(C)c1ccccc1OCCCC(=O)Nc1ccccc1C(=O)O` (centres unmarked) [reference compound], the amide cleavage entry in the series “S9 metabolism assay” is on record as “showed a cleavage of the amide bond”.

For the molecule `CCC(=O)Nc1ccc(C#Cc2ccc(N3CCOCC3)cc2)cc1C(=O)O` [Example 4], the IC50 stood at 600 nM with LASV Ba366 and 50 nM on hDHODH.

On to `O=C(NCc1cc2cccc(C(F)(F)F)c2o1)Nc1ccccc1C(=O)O` [Example 2, 2-(3-((7-(trifluoromethyl)benzofuran-2-yl)methyl)ureido)benzoic acid], for which half-maximal inhibition in the series on LASV Ba366 (IC50) was put at 1000 nM. At hDHODH, this molecule had an IC50 of 90.7 nM. In “S9 metabolism assay”, the amide cleavage result is “no amide cleavage” and the “Metabolic stability [% remaining at 1h in rat S9 fraction]” value was 92.0%. Besides, the logD in [2] was determined as 1.96. In addition, the Papp at 5 h, 200 µM in [3] was determined as 3.23 ×10⁻⁶ cm/s.
